In patent US7875618B2, “Substituted imidazo[1,5-a]quinoxalines useful as inhibitors of phosphodiesterase 10 for the treatment of neurological and other disorders” (Wyeth, priority 2007, dated 2011):

Target: T1, human recombinant PDE10A (Homo sapiens, UniProt Q9Y233)
T1 construct: made in house; host or cells: SF21 insect cells (baculovirus)
Assay: Inhibition of human recombinant PDE10A ([3H]-cAMP SPA, Method B)
Type: biochemical
Conditions: read-out: PDE10 inhibition IC50 [nM] PDE10A human
Procedure: The gene was than inserted into a baculovirus vector, ligated with the baculovirus DNA. The enzyme-protein was expressed in SF21-cells. The enzyme was isolated from these cells by harvesting the cells by a centrifugation at 200 g to collect the cells. The cells were resuspended in 50 mM Tris-HCl/5 mM MgCl2 buffer (pH=7.4) and lysed by a sonication of the cells. The cytosolic PDE10A was obtained by a centrifugation at 48000 g for 1 h in the supernatant and stored at −70° C. PDE10 activity was determined in a one step procedure in microtiterplates. […] Nonspecific activity was tested without the enzyme. The reaction was initiated by addition of the substrate solution and was carried out at 37° C. for 30 minutes. Enzymatic activity was stopped by addition of 25 μl YSi-SPA-beads (Amersham-Pharmacia). One hour later the mixture was measured in a liquid scintillation counter for microtiterplates (Microbeta Trilux). To pipette the incubation mixture a robot Biomek (Fa. Beckman) is used. […] For determination of IC50 values the Hill-plot, 2-parameter-model, was used.

T1 sequence (Q9Y233 1-779 isoform Q9Y233-1): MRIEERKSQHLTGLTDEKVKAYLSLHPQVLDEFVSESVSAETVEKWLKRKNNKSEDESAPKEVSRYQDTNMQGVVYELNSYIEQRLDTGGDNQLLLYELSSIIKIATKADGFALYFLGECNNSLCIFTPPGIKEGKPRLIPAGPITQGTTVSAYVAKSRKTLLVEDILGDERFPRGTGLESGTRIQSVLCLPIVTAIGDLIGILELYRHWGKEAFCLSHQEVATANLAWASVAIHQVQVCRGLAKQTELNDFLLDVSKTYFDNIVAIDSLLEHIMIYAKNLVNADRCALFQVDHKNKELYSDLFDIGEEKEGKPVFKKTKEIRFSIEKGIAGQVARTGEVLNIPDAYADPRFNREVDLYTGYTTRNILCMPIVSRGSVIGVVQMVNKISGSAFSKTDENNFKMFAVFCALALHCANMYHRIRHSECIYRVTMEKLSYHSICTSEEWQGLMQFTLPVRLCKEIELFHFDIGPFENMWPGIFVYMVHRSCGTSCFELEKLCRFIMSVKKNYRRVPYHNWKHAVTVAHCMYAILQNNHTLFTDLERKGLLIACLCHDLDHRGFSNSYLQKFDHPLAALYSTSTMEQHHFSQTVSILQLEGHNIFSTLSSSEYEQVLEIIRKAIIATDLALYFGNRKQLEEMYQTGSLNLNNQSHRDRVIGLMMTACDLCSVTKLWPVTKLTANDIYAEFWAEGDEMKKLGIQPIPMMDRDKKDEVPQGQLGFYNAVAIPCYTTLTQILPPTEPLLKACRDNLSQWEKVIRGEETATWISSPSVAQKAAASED

“7-Methoxy-3-methyl-1-propyl-imidazo[1,5-a]quinoxalin-4-ylamine [Example 41]” and `Cc1nc(-c2ccccc2Cl)n2c1c(C)nc1ccc(F)cc12` [Example 15, 1-(2-Chlorphenyl)-3,4-dimethyl-8-fluoro-imidazo(1,5-a)quinoxaline] fall in the same range of IC50: 10 to 100 nM for the first, 10 to 100 nM for the second.

`Cc1nc(-c2ccccc2OC(F)(F)F)n2c1c(C)nc1ccc(F)cc12` [Example 28, 8-Fluoro-3,4-dimethyl-1-[2-(trifluoromethoxy)phenyl]imidazo[1,5-a]quinoxaline] and `Cc1ccsc1-c1nc(C)c2c(C)nc3ccc(F)cc3n12` [Example 29, 8-Fluoro-3,4-dimethyl-1-(3-methyl-2-thienyl)imidazo[1,5-a]quinoxaline] cannot be ordered by IC50: at least 100 nM for the first, 10 to 100 nM for the second.

`Cc1ccccc1-c1nc(C)c2c(C)nc3c(O)cc(O)cc3n12` [Example 54, 6,8-Dihydroxy-3,4-dimethyl-1-(2-methylphenyl)-imidazo[1,5-a]quinoxaline] and `Cc1nc(-c2ccccc2Cl)n2c1c(C)nc1cc(O)ccc12` [Example 55, 1-(2-Chlorophenyl)-3,4-dimethyl-7-hydroxy-imidazo(1,5-a)quinoxaline] fall in the same range of IC50: 10 to 100 nM for the first, 10 to 100 nM for the second.

`Cc1ccccc1-c1nc(C)c2c(C)nc3c(OC(F)F)cc(OC(F)F)cc3n12` [Example 56, 6,8-Bis-difluoromethoxy-3,4-dimethyl-1-(2-methylphenyl)-imidazo(1,5-a)quinoxaline] and `COc1cccc2c1nc(C)c1c(C)nc(-c3ccccc3C)n12` [Example 133, 6-Methoxy-3,4-dimethyl-1-(2-methylphenyl)imidazo[1,5-a]quinoxaline] cannot be ordered by IC50: at most 10 nM for the first, at most 10 nM for the second.

`Cc1ccc(C(N)=O)cc1-c1nc(C)c2c(C)nc3ccc(F)cc3n12` [Example 134, 3-(8-fluoro-3,4-dimethylimidazo[1,5-a]quinoxalin-1-yl)-4-methylbenzamide] and `Cc1nc(-c2ccc(F)c(C(N)=O)c2)n2c1c(C)nc1ccc(F)cc12` [Example 135, 2-fluoro-5-(8-fluoro-3,4-dimethylimidazo[1,5-a]quinoxalin-1-yl)benzamide] fall in the same range of IC50: 10 to 100 nM for the first, 10 to 100 nM for the second.

`Cc1nc(-c2cc(F)cc(C(N)=O)c2)n2c1c(C)nc1ccc(F)cc12` [Example 136, 3-fluoro-5-(8-fluoro-3,4-dimethylimidazo[1,5-a]quinoxalin-1-yl)benzamide] and `Cc1nc(-c2cc(C(N)=O)ccc2F)n2c1c(C)nc1ccc(F)cc12` [Example 137, 4-fluoro-3-(8-fluoro-3,4-dimethylimidazo[1,5-a]quinoxalin-1-yl)benzamide] fall in the same range of IC50: 10 to 100 nM for the first, 10 to 100 nM for the second.

`Cc1nc(F)ccc1-c1nc(C)c2c(C)nc3ccc(F)cc3n12` [Example 139, 8-fluoro-1-(6-fluoro-2-methylpyridin-3-yl)-3,4-dimethylimidazo[1,5-a]quinoxaline] and `COc1ccncc1-c1nc(C)c2c(C)nc3ccc(F)cc3n12` [Example 140, 8-fluoro-1-(4-methoxypyridin-3-yl)-3,4-dimethylimidazo[1,5-a]quinoxaline] cannot be ordered by IC50: at least 100 nM for the first, at least 100 nM for the second.

`Cc1nc(-c2ccncc2)n2c1c(C)nc1ccc(F)cc12` [Example 143, 8-fluoro-3,4-dimethyl-1-pyridin-4-ylimidazo[1,5-a]quinoxaline] and `Cc1nc(-c2cccnc2)n2c1c(C)nc1ccc(F)cc12` [Example 144, 8-fluoro-3,4-dimethyl-1-pyridin-3-ylimidazo[1,5-a]quinoxaline] cannot be ordered by IC50: at least 100 nM for the first, at least 100 nM for the second.

With `CCCc1nc(C)c2c(Cl)nc3ccc(OC)cc3n12` [Intermediate B1, 4-chloro-8-methoxy-3-methyl-1-propyl-imidazo[1,5-a]quinazoline] the IC50 was 10 to 100 nM.

Target: PDE10 from pig striatum (Sus scrofa, UniProt A0A287B941)
Assay: Inhibition of PDE10 from pig striatum ([3H]-cAMP SPA, Methods A and B)
Type: biochemical
Conditions: PDE10 pig
Procedure: Striatum from male Wistar rats (180-200 g), male hybrid pigs (150 kg) and male guinea pigs (CRL (HA), 500 g) respectively were collected and frozen at −70° C. At the day of preparation 0.5 g striatum was homogenised in 10 ml 50 mM Tris/Mg-buffer at 4° C. and centrifuged for one hour at 100000 g. The supernatant is called the cytosolic fraction and was removed and stored on ice. The pellet was resuspended in the same buffer, but containing 1% Triton and incubated for 45 min at 4° C. Both fractions were independently applied onto a 5 ml Hi Trap™ QHP column at the Äkta-FPLC. After washing the columns the bound PDE protein was eluted with an increasing sodium chloride gradient (0 mM-500 mM sodium chloride) in 50 mM Tris/Mg-buffer at 4° C. for the cytosolic fraction and in the presence of 1% Triton for the membrane fraction. […] The fractions with PDE10-activity were pooled and frozen in aliquots until use at −20° C. PDE10 activity was determined in a one step procedure in microtiter plates. […] Nonspecific activity was tested without the enzyme. The reaction was initiated by addition of the substrate solution and was carried out at 37° C. for 30 minutes. Enzymatic activity was stopped by addition of 25 μl YSi-SPA-beads (Amersham-Pharmacia). One hour later the mixture was measured in a liquid scintillation counter for microtiter plates (Microbeta Trilux). To pipette the incubation mixture a robot Biomek (Fa. Beckman) is used. […] For determination of IC50 values the Hill-plot, 2-parameter-model, was used. […] Striatum from male hybrid pigs (150 kg) were collected and frozen at −70° C. At the day of preparation 0.5 g striatum was homogenised in 10 ml 50 mM Tris/Mg-buffer at 4° C. and centrifuged for one hour at 100000 g. The supernatant was removed and the pellet was resuspended in the same buffer, but containing 1% Triton and incubated for 45 min at 4° C. The membrane fraction was applied onto a 5 ml Hi Trap™ QHP column at the Äkta-FPLC. After washing the column the bound PDE protein was eluted with an increasing sodium chloride gradient (0 mM-500 mM sodium chloride) in 50 mM Tris/Mg-buffer at 4° C. in the presence of 1% Triton. […] The fractions with PDE10-activity were pooled and frozen in aliquots until use at −20° C. PDE10 activity was determined in a one step procedure in microtiterplates. […] Nonspecific activity was tested without the enzyme. The reaction was initiated by addition of the substrate solution and was carried out at 37° C. for 30 minutes. Enzymatic activity was stopped by addition of 25 μl YSi-SPA-beads (Amersham-Pharmacia). One hour later the mixture was measured in a liquid scintillation counter for microtiterplates (Microbeta Trilux). To pipette the incubation mixture a robot Biomek (Fa. Beckman) is used. […] For determination of IC50 values the Hill-plot, 2-parameter-model, was used.

“7-Methoxy-3-methyl-1-propyl-imidazo[1,5-a]quinoxalin-4-ylamine [Example 41]” and `CCc1nc(C)c2c(N)nc3ccc(N4CCCCC4)cc3n12` [Example 1, 1-Ethyl-3-methyl-8-piperidin-1-yl-imidazo(1,5-a)quinoxalin-4-ylamine] cannot be ordered by IC50: 10 to 100 nM for the first, at least 100 nM for the second.

`Cc1nc(C2CCCCC2)n2c1c(N)nc1ccc(F)cc12` [Example 2, 1-Cyclohexyl-8-fluoro-3-methyl-imidazo(1,5-a)quinoxalin-4-yl-amine] and `Cc1nc(-c2ccccc2Cl)n2c1c(N)nc1ccc(F)cc12` [Example 8, 1-(2-Chlorphenyl)-8-fluoro-3-methyl-imidazo(1,5-a)quinoxalin-4-ylamine] cannot be ordered by IC50: 10 to 100 nM for the first, at most 10 nM for the second.

`CCCc1nc(C)c2c(C)nc3ccccc3n12` [Example 9, 3,4-Dimethyl-1-propyl-imidazo(1,5-a)quinoxaline] and `Cc1nc(-c2ccccc2Cl)n2c1c(C)nc1ccc(F)cc12` [Example 15, 1-(2-Chlorphenyl)-3,4-dimethyl-8-fluoro-imidazo(1,5-a)quinoxaline] cannot be ordered by IC50: 10 to 100 nM for the first, at most 10 nM for the second.

`CCCc1nc(C)c2c(OC)nc3ccc(F)cc3n12` [Example 18, 8-Fluoro-4-methoxy-3-methyl-1-propyl-imidazo(1,5-a)quin-oxaline] and `Cc1nc(-c2cc(Cl)ccc2Cl)n2c1c(C)nc1ccc(F)cc12` [Example 19, 1-(2,5-Dichlorophenyl)-8-fluoro-3,4-dimethylimidazo[1,5-a]quinoxaline] fall in the same range of IC50: 10 to 100 nM for the first, 10 to 100 nM for the second.

`Cc1nc(-c2cc(Cl)cc(Cl)c2)n2c1c(C)nc1ccc(F)cc12` [Example 20, 1-(3,5-Dichlorophenyl)-8-fluoro-3,4-dimethylimidazo[1,5-a]quinoxaline] and `Cc1nc(-c2cccc(Cl)c2)n2c1c(C)nc1ccc(F)cc12` [Example 21, 1-(3-Chlorophenyl)-8-fluoro-3,4-dimethylimidazo[1,5-a]quinoxaline] fall in the same range of IC50: 10 to 100 nM for the first, 10 to 100 nM for the second.

`Cc1nc(-c2ccc(F)cc2F)n2c1c(C)nc1ccc(F)cc12` [Example 22, 1-(2,4-Difluorophenyl)-8-fluoro-3,4-dimethylimidazo[1,5-a]quinoxaline] and `COc1ccccc1-c1nc(C)c2c(C)nc3ccc(F)cc3n12` [Example 23, 8-Fluoro-1-(2-methoxyphenyl)-3,4-dimethylimidazo[1,5-a]quinoxaline] fall in the same range of IC50: 10 to 100 nM for the first, 10 to 100 nM for the second.

`COc1cccc(-c2nc(C)c3c(C)nc4ccc(F)cc4n23)c1` [Example 24, 8-Fluoro-1-(3-methoxyphenyl)-3,4-dimethylimidazo[1,5-a]quinoxaline] and `Cc1ccccc1-c1nc(C)c2c(C)nc3ccc(F)cc3n12` [Example 25, 8-Fluoro-3,4-dimethyl-1-(2-methylphenyl)imidazo[1,5-a]quinoxaline] cannot be ordered by IC50: at most 10 nM for the first, at most 10 nM for the second.

`Cc1cccc(-c2nc(C)c3c(C)nc4ccc(F)cc4n23)c1` [Example 26, 8-Fluoro-3,4-dimethyl-1-(3-methylphenyl)imidazo[1,5-a]quinoxaline] and `Cc1nc(-c2ccccc2C(F)(F)F)n2c1c(C)nc1ccc(F)cc12` [Example 27, 8-Fluoro-3,4-dimethyl-1-[2-(trifluoromethyl)phenyl]imidazo[1,5-a]quinoxaline] fall in the same range of IC50: 10 to 100 nM for the first, 10 to 100 nM for the second.

`Cc1nc(-c2ccccc2OC(F)(F)F)n2c1c(C)nc1ccc(F)cc12` [Example 28, 8-Fluoro-3,4-dimethyl-1-[2-(trifluoromethoxy)phenyl]imidazo[1,5-a]quinoxaline] and `Cc1ccsc1-c1nc(C)c2c(C)nc3ccc(F)cc3n12` [Example 29, 8-Fluoro-3,4-dimethyl-1-(3-methyl-2-thienyl)imidazo[1,5-a]quinoxaline] fall in the same range of IC50: 10 to 100 nM for the first, 10 to 100 nM for the second.

Compared with `Cc1noc(C)c1-c1nc(C)c2c(C)nc3ccc(F)cc3n12` [Example 30, 1-(3,5-Dimethylisoxazol-4-yl)-8-fluoro-3,4-dimethylimidazo[1,5-a]quinoxaline], `Cc1ccccc1-c1nc(C)c2c(C)nc3c(O)cc(O)cc3n12` [Example 54, 6,8-Dihydroxy-3,4-dimethyl-1-(2-methylphenyl)-imidazo[1,5-a]quinoxaline] is lower in IC50: at least 100 nM for the first, at most 10 nM for the second.

`Cc1nc(-c2ccccc2Cl)n2c1c(C)nc1cc(O)ccc12` [Example 55, 1-(2-Chlorophenyl)-3,4-dimethyl-7-hydroxy-imidazo(1,5-a)quinoxaline] and `Cc1ccccc1-c1nc(C)c2c(C)nc3c(OC(F)F)cc(OC(F)F)cc3n12` [Example 56, 6,8-Bis-difluoromethoxy-3,4-dimethyl-1-(2-methylphenyl)-imidazo(1,5-a)quinoxaline] cannot be ordered by IC50: 10 to 100 nM for the first, at most 10 nM for the second.

`COc1cc(F)cc2c1nc(C)c1c(C)nc(-c3ccc(F)c(C(N)=O)c3)n12` [Example 86, 2-fluoro-5-(8-fluoro-6-methoxy-3,4-dimethylimidazo[1,5-a]quinoxalin-1-yl)benzamide] and `CCc1nc(C)c2c(Cl)nc3ccc(N4CCCCC4)cc3n12` [Intermediate B2, 4-Chloro-1-ethyl-3-methyl-8-piperidin-1-yl-imidazo(1,5-a)quinoxaline] cannot be ordered by IC50: at most 10 nM for the first, 10 to 100 nM for the second.

In the case of `Cc1nc(-c2ccccc2Cl)n2c1c(Cl)nc1ccc(F)cc12` [Intermediate B8], the IC50 is reported as at most 10 nM.
